This passage reports EC50 results from patent US9499550B2 (BRISTOL-MYERS SQUIBB COMPANY, priority 2012, dated 2016).

Molecules are shown by their SMILES. Like-named read-outs stand apart in the source and are kept apart here.

In test [1] the test system is HCV genotype 1b (Con1) replicon in HUH-7 cells. As to the kind of experiment: HCV replicon luciferase reporter assay, genotype 1b. The format is cell-based. As to conditions: Hepatitis C virus, Huh-7, 72 h, HCV genotype 1b replicon luciferase, 3 days incubation. In short, it runs like this:
(§1)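 Replicon inhibition for both genotypes was measured as Renilla luciferase signal (EnduRen, 7.5 μM final, 2 h) after 3-day, 37° C exposure of replicon-bearing HUH-7 cells in 4% FCS DMEM, 0.5% DMSO. The 1b construct carries S1179I; the 1a H77 construct carries P1496L and S2204I. Twenty-point, 3-fold dilutions were fitted four-parametrically for EC50, and CC50 was taken from multiplexed Cell Titer-Blue.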

Test [2] deals with HCV genotype 1a (H77 strain) replicon in HUH-7 cells. As to the kind of experiment: HCV replicon luciferase reporter assay, genotype 1a. Format: cell-based. As to conditions: Hepatitis C virus, Huh-7, 72 h, HCV genotype 1a replicon luciferase, 3 days incubation. Summed up:
as §1

Take `CC[C@@H]1C[C@H](C)CC/C=C\[C@@H]2C[C@@]2(C(=O)NS(=O)(=O)C2(C)CC2)NC(=O)[C@@H]2C[C@@H](Oc3nccc4c5c(ccc34)CCCO5)CN2C(=O)[C@H]1NC(=O)OC(C)(C)C(F)(F)F` [Compound 6062, 1,1,1-trifluoro-2-methylpropan-2-yl((2R,6S,7R,9R,13aS,14aR,16aS,Z)-2-((3,4-dihydro-2H-pyrano[2,3-f]isoquinolin-7-yl)oxy)-7-ethyl-9-methyl-14a-(((1-methylcyclopropyl)sulfonyl)carbamoyl)-5,16-dioxo-1,2,3,5,6,7,8,9,10,11,13a,14,14a,15,16,16a-hexadecahydrocyclopropa[e]pyrrolo[1,2-a][1,4]diazacyclopentadecin-6-yl)carbamate]: the half-maximal effective concentration (EC50) lay in the range of 0.51 to 1 nM in test [1] (read-out: LE_1b (EC50, range)) and 1.01 to 5 nM in test [2] (read-out: LE_1a (EC50, range)).
As for `CC[C@@H]1C[C@H](C)CC/C=C\[C@@H]2C[C@@]2(C(=O)NS(=O)(=O)C2(C)CC2)NC(=O)[C@@H]2C[C@@H](Oc3nc4c(c5ccccc35)CCCO4)CN2C(=O)[C@H]1NC(=O)OC(C)(C)C` [Compound 6064, tert-butyl ((2R,6S,7R,9R,13aS,14aR,16aS,Z)-2-((2,3-dihydro-1H-pyrano[2,3-c]isoquinolin-6-yl)oxy)-7-ethyl-9-methyl-14a-(((1-methylcyclopropyl)sulfonyl)carbamoyl)-5,16-dioxo-1,2,3,5,6,7,8,9,10,11,13a,14,14a,15,16,16a-hexadecahydrocyclopropa[e]pyrrolo[1,2-a][1,4]diazacyclopentadecin-6-yl)carbamate], the EC50 lay within 0.1 to 0.5 nM in test [1] (read-out: LE_1b (EC50, range)) and 0.51 to 1 nM in test [2] (read-out: LE_1a (EC50, range)).
As for `C[C@@H]1CC/C=C\[C@@H]2C[C@@]2(C(=O)NS(=O)(=O)C2(CF)CC2)NC(=O)[C@@H]2C[C@@H](Oc3nccc4c5c(ccc34)CCCO5)CN2C(=O)[C@@H](NC(=O)OC(C)(C)C(F)(F)F)[C@H](C)C1` [Compound 6066, 1,1,1-trifluoro-2-methylpropan-2-yl((2R,6S,7R,9R,13aS,14aR,16aS,Z)-2-((3,4-dihydro-2H-pyrano[2,3-f]isoquinolin-7-yl)oxy)-14a-(((1-(fluoromethyl)cyclopropyl)sulfonyl)carbamoyl)-7,9-dimethyl-5,16-dioxo-1,2,3,5,6,7,8,9,10,11,13a,14,14a,15,16,16a-hexadecahydrocyclopropa[e]pyrrolo[1,2-a][1,4]diazacyclopentadecin-6-yl)carbamate], the EC50 was in the range of 1.01 to 5 nM in test [1] (read-out: LE_1b (EC50, range)) and 1.01 to 5 nM in test [2] (read-out: LE_1a (EC50, range)).
Consider `CC[C@@H]1C[C@H](C)CC/C=C\[C@@H]2C[C@@]2(C(=O)NS(=O)(=O)C2(CF)CC2)NC(=O)[C@@H]2C[C@@H](Oc3nc4c(c5ccccc35)CCCO4)CN2C(=O)[C@H]1NC(=O)OC(C)(C)C(F)(F)F` [Compound 6068, 1,1,1-trifluoro-2-methylpropan-2-yl((2R,6S,7R,9R,13aS,14aR,16aS,Z)-2-((2,3-dihydro-1H-pyrano[2,3-c]isoquinolin-6-yl)oxy)-7-ethyl-14a-(((1-(fluoromethyl)cyclopropyl)sulfonyl)carbamoyl)-9-methyl-5,16-dioxo-1,2,3,5,6,7,8,9,10,11,13a,14,14a,15,16,16a-hexadecahydrocyclopropa[e]pyrrolo[1,2-a][1,4]diazacyclopentadecin-6-yl)carbamate], for which the EC50 in test [1] (read-out: LE_1b (EC50, range)) lay within 0.51 to 1 nM; in test [2] (read-out: LE_1a (EC50, range)) it was 1.01 to 5 nM.
On to `CC[C@@H]1C[C@H](C)CC/C=C\[C@@H]2C[C@@]2(C(=O)NS(=O)(=O)C2(CF)CC2)NC(=O)[C@@H]2C[C@@H](Oc3nc4c(c5ccccc35)CCCO4)CN2C(=O)[C@H]1NC(=O)OC(C)(C)C(C)(F)F` [Compound 6070, 3,3-difluoro-2-methylbutan-2-yl((2R,6S,7R,9R,13aS,14aR,16aS,Z)-2-((2,3-dihydro-1H-pyrano[2,3-c]isoquinolin-6-yl)oxy)-7-ethyl-14a-(((1-(fluoromethyl)cyclopropyl)sulfonyl)carbamoyl)-9-methyl-5,16-dioxo-1,2,3,5,6,7,8,9,10,11,13a,14,14a,15,16,16a-hexadecahydrocyclopropa[e]pyrrolo[1,2-a][1,4]diazacyclopentadecin-6-yl)carbamate], for which the EC50 is 0.51 to 1 nM in test [1] (read-out: LE_1b (EC50, range)) and 1.01 to 5 nM in test [2] (read-out: LE_1a (EC50, range)).
Consider `CC[C@@H]1C[C@H](C)CC/C=C\[C@@H]2C[C@@]2(C(=O)NS(=O)(=O)C2(CF)CC2)NC(=O)[C@@H]2C[C@@H](Oc3nc4c(c5ccccc35)CCCO4)CN2C(=O)[C@H]1NC(=O)OC(C)(C)C(F)F` [Compound 6072, 1,1-difluoro-2-methylpropan-2-yl((2R,6S,7R,9R,13aS,14aR,16aS,Z)-2-((2,3-dihydro-1H-pyrano[2,3-c]isoquinolin-6-yl)oxy)-7-ethyl-14a-(((1-(fluoromethyl)cyclopropyl)sulfonyl)carbamoyl)-9-methyl-5,16-dioxo-1,2,3,5,6,7,8,9,10,11,13a,14,14a,15,16,16a-hexadecahydrocyclopropa[e]pyrrolo[1,2-a][1,4]diazacyclopentadecin-6-yl)carbamate], for which the EC50 in test [1] (read-out: LE_1b (EC50, range)) fell in the range of 0.51 to 1 nM; in test [2] (read-out: LE_1a (EC50, range)), 1.01 to 5 nM.
With `C[C@@H]1CC/C=C\[C@@H]2C[C@@]2(C(=O)NS(=O)(=O)C2(CF)CC2)NC(=O)[C@@H]2C[C@@H](Oc3nc4c(c5ccccc35)CCCO4)CN2C(=O)[C@@H](NC(=O)OC(C)(C)C(F)F)[C@H](C)C1` [Compound 6074, 1,1-difluoro-2-methylpropan-2-yl((2R,6S,7R,9R,13aS,14aR,16aS,Z)-2-((2,3-dihydro-1H-pyrano[2,3-c]isoquinolin-6-yl)oxy)-14a-(((1-(fluoromethyl)cyclopropyl)sulfonyl)carbamoyl)-7,9-dimethyl-5,16-dioxo-1,2,3,5,6,7,8,9,10,11,13a,14,14a,15,16,16a-hexadecahydrocyclopropa[e]pyrrolo[1,2-a][1,4]diazacyclopentadecin-6-yl)carbamate], the EC50 lay in the range of 1.01 to 5 nM in test [1] (read-out: LE_1b (EC50, range)) and 0.51 to 1 nM in test [2] (read-out: LE_1a (EC50, range)).
On to `COc1ccc2c(O[C@@H]3C[C@H]4C(=O)N[C@]5(C(=O)NS(=O)(=O)C6(CF)CC6)C[C@H]5/C=C\CC[C@@H](C)C[C@@H](C)[C@H](NC(=O)OC(C)(C)C(F)(F)F)C(=O)N4C3)nc3c(c2c1)CCCO3` [Compound 6076, 1,1,1-trifluoro-2-methylpropan-2-yl((2R,6S,7R,9R,13aS,14aR,16aS,Z)-14a-(((1-(fluoromethyl)cyclopropyl)sulfonyl)carbamoyl)-2-((9-methoxy-2,3-dihydro-1H-pyrano[2,3-c]isoquinolin-6-yl)oxy)-7,9-dimethyl-5,16-dioxo-1,2,3,5,6,7,8,9,10,11,13a,14,14a,15,16,16a-hexadecahydrocyclopropa[e]pyrrolo[1,2-a][1,4]diazacyclopentadecin-6-yl)carbamate], for which the EC50 in test [1] (read-out: LE_1b (EC50, range)) was in the range of 1.01 to 5 nM; in test [2] (read-out: LE_1a (EC50, range)) it was 1.01 to 5 nM.
As for `COc1ccc2c(O[C@@H]3C[C@H]4C(=O)N[C@]5(C(=O)NS(=O)(=O)C6(CF)CC6)C[C@H]5/C=C\CC[C@@H](C)C[C@@H](C)[C@H](NC(=O)OC(C)(C)C(F)F)C(=O)N4C3)nc3c(c2c1)CCCO3` [Compound 6078, 1,1-difluoro-2-methylpropan-2-yl((2R,6S,7R,9R,13aS,14aR,16aS,Z)-14a-(((1-(fluoromethyl)cyclopropyl)sulfonyl)carbamoyl)-2-((9-methoxy-2,3-dihydro-1H-pyrano[2,3-c]isoquinolin-6-yl)oxy)-7,9-dimethyl-5,16-dioxo-1,2,3,5,6,7,8,9,10,11,13a,14,14a,15,16,16a-hexadecahydrocyclopropa[e]pyrrolo[1,2-a][1,4]diazacyclopentadecin-6-yl)carbamate], the EC50 lay within 1.01 to 5 nM in test [1] (read-out: LE_1b (EC50, range)) and 1.01 to 5 nM in test [2] (read-out: LE_1a (EC50, range)).
Turning to `COc1ccc2c(O[C@@H]3C[C@H]4C(=O)N[C@]5(C(=O)NS(=O)(=O)C6(C)CC6)C[C@H]5/C=C\CC[C@@H](C)C[C@@H](C)[C@H](NC(=O)OC(C)(C)C(F)(F)F)C(=O)N4C3)nc3c(c2c1)CCCO3` [Compound 6080, 1,1,1-trifluoro-2-methylpropan-2-yl((2R,6S,7R,9R,13aS,14aR,16aS,Z)-2-((9-methoxy-2,3-dihydro-1H-pyrano[2,3-c]isoquinolin-6-yl)oxy)-7,9-dimethyl-14a-(((1-methylcyclopropyl)sulfonyl)carbamoyl)-5,16-dioxo-1,2,3,5,6,7,8,9,10,11,13a,14,14a,15,16,16a-hexadecahydrocyclopropa[e]pyrrolo[1,2-a][1,4]diazacyclopentadecin-6-yl)carbamate], the EC50 was 0.79 nM in test [1] (read-out: LE_1b (EC50)); 0.51 to 1 nM in test [1] (read-out: LE_1b (EC50, range)); 0.31 nM in test [2] (read-out: LE_1a (EC50)); 0.1 to 0.5 nM in test [2] (read-out: LE_1a (EC50, range)).
As for `COc1ccc2c(O[C@@H]3C[C@H]4C(=O)N[C@]5(C(=O)NS(=O)(=O)C6(C)CC6)C[C@H]5/C=C\CC[C@@H](C)C[C@@H](C)[C@H](NC(=O)OC(C)(C)C(C)(F)F)C(=O)N4C3)nc3c(c2c1)CCCO3` [Compound 6082, 3,3-difluoro-2-methylbutan-2-yl((2R,6S,7R,9R,13aS,14aR,16aS,Z)-2-((9-methoxy-2,3-dihydro-1H-pyrano[2,3-c]isoquinolin-6-yl)oxy)-7,9-dimethyl-14a-(((1-methylcyclopropyl)sulfonyl)carbamoyl)-5,16-dioxo-1,2,3,5,6,7,8,9,10,11,13a,14,14a,15,16,16a-hexadecahydrocyclopropa[e]pyrrolo[1,2-a][1,4]diazacyclopentadecin-6-yl)carbamate], the concentration for a half-maximal effect (EC50) lay within 1.01 to 5 nM in test [1] (read-out: LE_1b (EC50, range)) and 0.51 to 1 nM in test [2] (read-out: LE_1a (EC50, range)).
